From patent publication US20130109721A1, “FAAH Inhibitors” (Ironwood Pharmaceuticals, Inc., priority 2009, published 2013)

Target: T1, FAAH (Mus musculus, UniProt O08914)
T1 construct: Whole brain tissue from these mice was collected; from tissue; host or cells: CD-1 mouse whole brain membrane homogenate
T1 sequence (O08914 1-579): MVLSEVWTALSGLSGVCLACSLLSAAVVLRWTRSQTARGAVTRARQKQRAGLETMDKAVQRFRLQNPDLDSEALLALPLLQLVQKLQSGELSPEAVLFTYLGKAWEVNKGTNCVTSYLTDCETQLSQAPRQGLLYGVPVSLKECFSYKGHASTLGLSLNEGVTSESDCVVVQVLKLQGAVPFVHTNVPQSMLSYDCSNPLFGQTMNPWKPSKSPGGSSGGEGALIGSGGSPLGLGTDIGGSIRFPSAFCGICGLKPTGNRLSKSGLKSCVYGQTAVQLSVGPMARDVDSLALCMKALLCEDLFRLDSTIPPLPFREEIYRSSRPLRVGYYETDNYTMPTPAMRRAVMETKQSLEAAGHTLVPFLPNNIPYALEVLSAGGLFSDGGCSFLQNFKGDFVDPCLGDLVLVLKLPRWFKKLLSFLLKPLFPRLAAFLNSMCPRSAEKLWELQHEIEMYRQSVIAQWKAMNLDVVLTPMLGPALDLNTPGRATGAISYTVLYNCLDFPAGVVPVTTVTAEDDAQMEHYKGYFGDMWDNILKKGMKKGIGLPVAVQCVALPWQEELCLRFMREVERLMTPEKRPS
Assay: FAAH inhibition, mouse brain membrane homogenate assay
Assay type: biochemical
Conditions: average; FAAH extracted from mouse brain homogenate; read-out: Mouse Brain FAAH Extract IC50
Experimental: Adult rats (Charles River CD strain, female, 200 g) were anaesthetized with isofluorane and rapidly decapitated. Each brain was quickly removed and chilled in tubes (3 brains per tube) on ice. About 25 mL of “homogenization buffer” (20 mM HEPES buffer, pH 7.0, with 1 mM MgCl2) was added to 15 to 20 g of brain. The brains were homogenized on ice for 1 minute using an Omni GLH homogenizer (Omni International, Marietta, Ga.). The homogenates were then transferred to three centrifuge tubes and centrifuged at 36,500 g for 20 minutes at 4° C. The supernatant was discarded and each pellet was re-suspended in 25 mL homogenization buffer. The re-suspended material was again centrifuged (36,500 g, 20 minutes at 4° C.). Pellets were combined by resuspension in 10 mL of homogenization buffer and incubated in a 37° C. water bath for 15 minutes. The tubes were then placed on ice for 5 minutes followed by centrifugation at 36,500 g for 20 minutes at 4° C. The supernatant was discarded and the membrane pellets were then re-suspended in 40 mL of “resuspension buffer” (50 mM Tris-HCl buffer, pH 7.4, containing 1 mM EDTA and 3 mM MgCl2). A Bradford Protein assay was performed to determine protein concentration. The protein was aliquotted into screw cap Cryo tubes each containing ˜400 μL, flash frozen in liquid nitrogen and stored at −80° C. until used for the assay. A similar protocol was used to obtain brain membrane homogenates from mice.
Eighteen 10 to 12 week old female CD-1 mice housed at the animal care facility of Ironwood Pharmaceuticals were anesthetized by isoflurane anesthesia and rapidly decapitated using a small decapitator (Harvard Apparatus part #PY8 SS-0012, Holliston, Mass.). Whole brain tissue from these mice was collected (approximately 9.4 g total) and placed on aluminum foil sitting on dry ice to flash freeze the tissue. Tissue was thawed and used to prepare microsomes as described above for rat brain homogenates.
FAAH activity was assayed in the respective homogenates described herein (Rat brain, Mouse brain or Human brain) for certain exemplary substrate compounds using a modification of the method of Omeir et al. (1995 Life Sci 56:1999) and Fowler et al. (1997 J. Pharmacol Exp Ther 283:729). For assay of FAAH activity in rat brain membrane (RBM) homogenates, RBM homogenates (7 μg protein in 20 μL final volume of 10 mM Tris pH 6.5) were mixed with 180 μL of a mixture of the following: 2.0 μM unlabelled anandamide, 0.03 μCi radio labeled anandamide [ethanolamine 1-^3H] (40-60 Cis/mmol, product number ART-626, American Radiolabeled Chemicals, St. Louis, Mo.), 1 mg/mL Bovine Serum Albumin (fatty acid-free BSA, electrophoresis grade, Sigma, St. Louis, Mo.), 10 mM Tris-HCl (pH 6.5), and 1 mM EDTA in the presence and absence of test compounds (vehicle was DMSO at a final concentration of 1%) and incubated for 10 minutes at 37° C. Samples were placed on ice to terminate the reactions.
^3H-ethanolamine product and un-reacted ^3H-anandamide substrate were then separated either: (1) by using chloroform/methanol extraction or (2) by passing the reaction mixture through a glass fiber filter containing activated charcoal. Samples were extracted with chloroform/methanol by adding 0.4 mL of chloroform/methanol (1:1 v/v), vigorously mixing the samples, and separating the aqueous and organic phases by centrifugation. Radioactivity (corresponding to FAAH-catalyzed breakdown of ^3H-anandamide) found in aliquots (0.2 mL) of the aqueous phase was determined by liquid scintillation counting with quench correction. IC50 values were determined as described by Jonsson et al. (2001 Br. J. Pharmacol. 133:1263). Alternatively, reactions were purified using a modification of the solid-phase extraction method described by Wilson et al (2003 Anal. Biochem. 318:270). […]

First: COc1cc(NC(=O)C(=O)c2c(C)n(Cc3ccc(Cl)cc3)c3sccc23)ccn1 [Compound I-09, 2-(6-(4-chlorobenzyl)-5-methyl-6H-thieno[2,3-b]pyrrol-4-yl)-N-(2-methoxypyridin-4-yl)-2-oxoacetamide]
Second: Cc1c(C(=O)C(=O)Nc2cccc(Cl)c2)c2ccsc2n1Cc1ccc(Cl)cc1 [Compound I-08, 2-(6-(4-chlorobenzyl)-5-methyl-6H-thieno[2,3-b]pyrrol-4-yl)-N-(3-chlorophenyl)-2-oxoacetamide]
The IC50 of the first is lower: 62 nM for the first, > 5000 nM for the second.

First: Cc1c(C(=O)C(=O)Nc2cccc(Cl)c2)c2c(n1Cc1ccc(Cl)cc1)CCC(C)(C)C2 [Compound I-14, 2-(1-(4-chlorobenzyl)-2,5,5-trimethyl-4,5,6,7-tetrahydro-1H-indol-3-yl)-N-(3-chlorophenyl)-2-oxoacetamide]
Second: Cc1c(C(=O)C(=O)Nc2cccc(Cl)c2)c2c(n1Cc1ccc(Cl)cc1)CCCC2 [Compound I-16, 2-(1-(4-chlorobenzyl)-2-methyl-4,5,6,7-tetrahydro-1H-indol-3-yl)-N-(3-chlorophenyl)-2-oxoacetamide]
The IC50 of the first is 4-fold lower: 516 nM for the first, 2080 nM for the second.

First: Cc1c(C(=O)C(=O)Nc2cccc(Cl)c2)c2c(n1Cc1ccc(Cl)cc1)CCCCC2 [Compound I-12, 2-(1-(4-chlorobenzyl)-2-methyl-1,4,5,6,7,8-hexahydrocyclohepta[b]pyrrol-3-yl)-N-(3-chlorophenyl)-2-oxoacetamide]
Second: Cc1c(C(=O)C(=O)Nc2cccc(Cl)c2)c2c(n1Cc1ccc(Cl)cc1)CCCCCC2 [Compound I-10, 2-(1-(4-chlorobenzyl)-2-methyl-4,5,6,7,8,9-hexahydro-1H-cycloocta[b]pyrrol-3-yl)-N-(3-chlorophenyl)-2-oxoacetamide]
The IC50 of the first is lower: 1090 nM for the first, > 5000 nM for the second. The first is the more potent here.

Going from COc1cc(NC(=O)C(=O)c2c3c(n(Cc4ccc(Cl)cc4)c2C)CCCCC3)ccn1 [Compound I-13, 2-(1-(4-chlorobenzyl)-2-methyl-1,4,5,6,7,8-hexahydrocyclohepta[b]pyrrol-3-yl)-N-(2-methoxypyridin-4-yl)-2-oxoacetamide] to COc1cc(NC(=O)C(=O)c2c3c(n(Cc4ccc(Cl)cc4)c2C)CCCCCC3)ccn1 [Compound I-11, 2-(1-(4-chlorobenzyl)-2-methyl-4,5,6,7,8,9-hexahydro-1H-cycloocta[b]pyrrol-3-yl)-N-(2-methoxypyridin-4-yl)-2-oxoacetamide], the IC50 rises from 3 nM to 192 nM (64-fold). The first is the more potent here.

COc1cc(NC(=O)C(=O)c2c3c(n(Cc4ccc(Cl)cc4)c2C)CCC(C)(C)C3)ccn1 [Compound I-15, 2-(1-(4-chlorobenzyl)-2,5,5-trimethyl-4,5,6,7-tetrahydro-1H-indol-3-yl)-N-(2-methoxypyridin-4-yl)-2-oxoacetamide] and COc1cc(NC(=O)C(=O)c2c3c(n(Cc4ccc(Cl)cc4)c2C)CCCC3)ccn1 [Compound I-18, 2-(1-(4-chlorobenzyl)-2-methyl-4,5,6,7-tetrahydro-1H-indol-3-yl)-N-(2-methoxypyridin-4-yl)-2-oxoacetamide] are within 1.5-fold of each other in IC50: 7 nM for the first, 9 nM for the second.
